According to patent publication US6841563B1, “Aryloxy propanolamines for improving livestock production” (Eli Lilly and Company, priority 1999, dated 2005):
Marks after values point to notes of the source that are not given here.

Experiment: Weight gain, feed efficiency and carcass characteristics, last 14 days of growing period in broiler chickens
Assay type: in vivo
Details: for Dressing Percentage / Fat Pad Weight / Final Weight / Hot Carcass Weights / Pen Feed Intake / Total 14 day Weight Gain / Viscera Weight / Feed Efficiency F/G: day 35-49; for Feed Efficiency F/G: pen feed intake/total pen weight; for increase in weight gain over control / improvement of feed efficiency versus control: 14-day treatment period
Text: Approximately 1500 Peterson-Hubbard, day-old, male chicks were used in a randomized, complete-block design with 4 treatments (Control, Clenbuterol at 1 PPM, and Compound 6 at 3 and 15 PPM (mg/kg feed)). The testing facility contained 36 pens, divided equally into 6 blocks. Treatments were randomly allotted to pens within each block. Each treatment consisted of 6 pens with 10 birds per pen.
Day-of-age birds were obtained from Pine Manor Hatchery in Goshen, Ind. Approximately 40 birds per pen were set at random upon receipt. On day 30 of the growout period, all birds were weighed and the 15 birds closest to the block mean were selected. These birds were allowed to acclimate until day 35 of age. On that day, all remaining birds were weighed again, and the 10 birds/pen closest to the block mean were chosen for the treatment phase. Birds were provided ad libitum access to feed and water throughout the trial. All birds were fed a 23% crude protein corn-soy ration from day 1 until day 18 of age. The feed was changed to a 20% crude protein corn-soy ration from day 18 to day 49. The treatment feed was mixed using the same 20% crude protein basal ration. Treatments were administered in the feed from day 35 through day 49. Feed consumption was calculated over the entire 14-day treatment period. Birds were weighed at trial completion (day 49), and transported to Purdue University, West Lafayette, Ind. 47907, U.S.A. meat laboratory for slaughter and carcass measurements on day 50. Weights of the hot carcass, fat pad, and viscera were taken on all animals.

## CC(C)(Cc1ccc(Oc2ncccc2C(N)=O)cc1)NC[C@H](O)COc1cccc2[nH]ccc12 [Compound 6, (S)-2-[4-[2-[2-Hydroxy-3-(1H-indol-4-yloxy)propylamino]-2-methylpropyl]-phenoxy]-3-pyridinecarboxamide]
3 PPM in feed
  Dressing Percentage: 72.43*
  Fat Pad Weight: 28.67 g
  Final Weight: 3.02 kg
  Hot Carcass Weights: 2175.69* g
  Pen Feed Intake: 25.74 kg
  Total 14 day Weight Gain: 1.30 kg
  Viscera Weight: 283.04 g
  Feed Efficiency F/G: 1.95
3 PPM, P=0.0987
  increase in weight gain over control: 3.17%
3 PPM, P=0.2936
  improvement of feed efficiency versus control: 2.50%
3 PPM, P=0.0174
  increase in hot carcass weights compared to control: 2.50%
3 PPM, P=0.1069
  increase in fat pad weight: 9.68%
3 PPM, P=0.3981
  decrease in viscera weights with respect to control: 1.50%
15 PPM in feed
  Dressing Percentage: 72.63**
  Fat Pad Weight: 27.21 g
  Final Weight: 3.02 kg
  Hot Carcass Weights: 2182.55** g
  Pen Feed Intake: 25.25 kg
  Total 14 day Weight Gain: 1.30 kg
  Viscera Weight: 285.49 g
  Feed Efficiency F/G: 1.94
15 PPM, P=0.0756
  increase in weight gain over control: 3.17%
15 PPM, P=0.1957
  improvement of feed efficiency versus control: 3.00%
15 PPM, P=0.0078
  increase in hot carcass weights compared to control: 2.82%
15 PPM, P=0.4814
  increase in fat pad weight: 4.09%
15 PPM, P=0.7279
  decrease in viscera weights with respect to control: 0.65%
